# Assay results from patent US20240132461A1, “FLAVONE DEAZA SPERMIDINE ANALOGUES AND THEIR USE TREATING CANCER” (FLORATEK PHARMA S.A., priority 2021, published 2024).
# pIC50: −log10 of the molar value. Counter-ions that a name gives are not always drawn.
# Legend:
# Type in all cases: cell-based
# HCT-116 = assay: Cell viability assay, colon cancer cell line HCT-116
# Procedure: (§1) Antitumor activity of the compounds and doxorubicin as a positive control was assessed by using the CellTiter-Blue Cell Viability Assay (Promega, #G8082) or CellTiter-Glow® Luminescent Cell Viability assay (Promega # G7572) according to the manufacturer's instructions. The compounds were tested at 5 or 6 concentrations in half-log increments (highest concentration 30 μM-100 μM) in duplicate or triplicate well conditions.
# Tumor cells were grown at 37° C. in a humidified atmosphere with 5% CO2 in RPMI 1640 or DMEM medium, supplemented with 10% (v/v) fetal calf serum and 50 μg/ml gentamicin for up to 20 passages, and were passaged once or twice weekly. Cells were harvested using TrypLE or PBS buffer containing 1 mM EDTA, and the percentage of viable cells is determined using a CASY Model TT cell counter (OMNI Life Science). Cells were harvested from exponential phase cultures, counted and plated in 96 well flat-bottom microtiter plates at a cell density depending on the cell line's growth rate (4,000-20,000 cells/well depending on the cell line's growth rate, up to 60,000 for hematological cancer cell lines) in RPMI 1640 or DMEM medium supplemented with 10% (v/v) fetal calf serum and 50 μg/ml gentamicin (140 μl/well). […] Viability of cells was quantified by the CellTiter-Blue® cell viability assay (Promega G8081) or CellTiter-Glow® Luminescent Cell Viability assay (Promega # G7572). […]
# melanoma cell lines = assay: Cell viability assay, melanoma cell lines (summary); settings: summary of Tables 14A and 14B; read-out: IC50s, melanoma cell lines growth
# Procedure: as §1
# (§2) Tumor cells were grown at 37° C. in a humidified atmosphere with 5% CO2 in RPMI 1640 or DMEM medium, supplemented with 10% (v/v) fetal calf serum and 50 μg/ml gentamicin for up to 20 passages, and were passaged once or twice weekly. Cells were harvested using TrypLE or PBS buffer containing 1 mM EDTA, and the percentage of viable cells is determined using a CASY Model TT cell counter (OMNI Life Science). Cells were harvested from exponential phase cultures, counted and plated in 96 well flat-bottom microtiter plates at a cell density depending on the cell line's growth rate (4,000-20,000 cells/well depending on the cell line's growth rate, up to 60,000 for hematological cancer cell lines) in RPMI 1640 or DMEM medium supplemented with 10% (v/v) fetal calf serum and 50 μg/ml gentamicin (140 μl/well). Cultures were incubated at 37° C. and 5% CO2 in a humidified atmosphere. After 24 h, 10 μl of test compounds or control medium are added, and left on the cells for another 72 h. Compounds were serially diluted in DMSO, transferred in cell culture medium, and added to the assay plates. The DMSO concentration was kept constant at <0.3% v/v across the assay plate. Viability of cells was quantified by the CellTiter-Blue® cell viability assay (Promega G8081) or CellTiter-Glow® Luminescent Cell Viability assay (Promega # G7572). Fluorescence (FU) was measured by using the EnSpire® multimode plate reader (Perkin Elmer) (excitation λ=570 nm, emission λ=600 nm) or luminescent detection of ATP in viable cells was used as parameter for proliferation. Luminescence was measured with the microplate luminometer (Promega or Perkin Elmer).
# (§3) Sigmoidal concentration-response curves were fitted to the data points (test-versus-control, T/C values) obtained for each tumor model using 4 parameter non-linear curve fit (Charles River DRS Datawarehouse Software) or with GraphPad prism 5.02 software. IC50 values are reported as absolute IC50 values, being the concentration of test compound at the intersection of the concentration-response curves with T/C=50%
# A375 = assay: Cell viability assay, melanoma cell line A375; settings: Homo sapiens, A-375
# Procedure: as §1, §2, §3
# NCI-H1437 = assay: Cell viability assay, non-small lung carcinoma cell line NCI-H1437; settings: Homo sapiens
# Procedure: as §1, §2, §3
# LN-229 = assay: Cell viability assay, brain carcinoma cell line LN-229; settings: Homo sapiens; LN-229 brain carcinoma cell line, 72 h, absolute IC50
# Procedure: as §1, §2, §3
# CALU-6 = assay: Cell viability assay, non-small cell lung carcinoma cell line CALU-6; settings: Homo sapiens; CALU-6 non-small cell lung carcinoma cell line
# Procedure: as §1, §2, §3
# breast cancer cell = assay: Cell viability assay, breast cancer cell lines (summary); settings: summary of Tables 4A and 4B; read-out: IC50s, breast cancer cell growth
# Procedure: as §1, §2, §3
# U-87MG = assay: Cell viability assay, brain carcinoma cell line U-87MG; settings: Homo sapiens; U-87MG brain carcinoma cell line, 72 h, absolute IC50
# Procedure: as §1, §2, §3
# U-251 = assay: Cell viability assay, brain carcinoma cell line U-251; settings: Homo sapiens; U-251 brain carcinoma cell line, 72 h, absolute IC50
# Procedure: as §1, §2, §3
# SH-SY-5Y = assay: Cell viability assay, brain carcinoma cell line SH-SY-5Y; settings: Homo sapiens, SH-SY5Y; SH-SY-5Y brain carcinoma cell line, 72 h, absolute IC50
# Procedure: as §1
# as §2, with “Elmer). […]” for “Elmer).”
# HL-60 = assay: Cell viability assay, acute promyelocytic leukemia cell line HL-60; settings: Homo sapiens; HL-60 acute promyelocytic leukemia cell line
# Procedure: as §1, §2, §3
# NCI-H292 = assay: Cell viability assay, mucoepidermoid pulmonary and adenocarcinoma, NCI-H292; settings: Homo sapiens
# Procedure: as §1
# as §2, with “Elmer). […]” for “Elmer).”
# MeWo = assay: Cell viability assay, melanoma cell line MeWo; settings: Homo sapiens
# Procedure: as §1
# as §2, with “Elmer). […]” for “Elmer).”
# NCI-H441 = assay: Cell viability assay, mucoepidermoid pulmonary and adenocarcinoma, NCI-H441; settings: Homo sapiens
# Procedure: as §1
# as §2, with “Elmer). […]” for “Elmer).”
# MDA-MB-468 = assay: Cell viability assay, breast carcinoma cell line MDA-MB-468; settings: Homo sapiens; MDA-MB-468 breast carcinoma cell line
# Procedure: as §1
# as §2, with “Elmer). […]” for “Elmer).”
# brain cancer cell = assay: Cell viability assay, brain cancer cell lines (summary); settings: summary of Tables 3A-D; read-out: IC50s, brain cancer cell growth
# Procedure: as §1, §2, §3
# DMS114 = assay: Cell viability assay, small cell lung carcinoma cell line DMS114; settings: Homo sapiens, DMS-114
# Procedure: as §1
# as §2, with “Elmer). […]” for “Elmer).”
# lung carcinoma cell = assay: Cell viability assay, lung carcinoma cell lines (summary); settings: summary of Tables 7A-E; read-out: IC50s, lung carcinoma cell growth
# Procedure: as §1, §2, §3
Compound,pIC50 (HCT-116; HCT-116 colon cancer cell line),"pIC50 (HCT-116; Homo sapiens, HCT-116, HCT-116 colon cancer cell line)",pIC50 (melanoma cell lines),pIC50 (A375),pIC50 (NCI-H1437),pIC50 (LN-229),pIC50 (CALU-6),pIC50 (breast cancer cell),pIC50 (U-87MG),pIC50 (U-251),pIC50 (SH-SY-5Y),pIC50 (HL-60),pIC50 (NCI-H292),pIC50 (MeWo),pIC50 (NCI-H441),pIC50 (MDA-MB-468),pIC50 (brain cancer cell),pIC50 (DMS114),pIC50 (lung carcinoma cell)
O=c1cc(-c2ccc(CCCN3CCCCC3)cc2)oc2c(O)c(O)ccc12 [SND172],4.94,> 4.70,,,,,,,,,,,,,,,,,
"CN(CCCc1ccc(-c2cc(=O)c3ccc(O)c(O)c3o2)cc1)CCN1CCN(C)CC1 [SND173, 7,8-Dihydroxy-2-(4-(3-(methyl(2-(4-methylpiperazin-1-yl)ethyl)amino)propyl)phenyl)-4H-chromen-4-one trihydrochloride]",,,> 5.00,5.00,,,,,,,,,,,,,,,
O=c1cc(-c2ccc(CCCCN3CCCCC3)cc2)oc2c3c(ccc12)OCO3 [SND390],,,,,5.00,5.15,,,,,,,,,,,,,
CN(CCCCc1ccc(-c2cc(=O)c3ccc4c(c3o2)OCO4)cc1)CCCN1CCCCC1 [SND391],,,> 5.00,5.89,5.85,5.55,5.40,> 5.00,5.29,5.41,5.52,5.62,6.01,5.72,5.92,5.92,> 5.00,5.96,> 4.70
NCCCNCCCCNCCCCc1ccc(-c2cc(=O)c3ccc4c(c3o2)OCO4)cc1 [SND392],,,> 5.00,,5.51,4.96,5.15,,5.12,5.08,5.43,5.23,5.42,5.01,5.27,,,5.27,> 4.70
CN(CCCCc1ccc(-c2cc(=O)c3ccc4c(c3o2)OCO4)cc1)C12CC3CC(CC(C3)C1)C2 [SND393],,,> 5.00,5.57,,,5.15,> 5.00,5.15,5.17,5.33,,,,,5.49,> 5.00,,> 4.70
CCN(CCCCc1ccc(-c2cc(=O)c3ccc4c(c3o2)OCO4)cc1)Cc1ccccc1OC [SND394],,,,,5.68,5.54,5.05,> 5.00,5.12,5.12,,5.55,5.72,,5.49,5.42,> 5.00,5.51,> 4.70
